Reference: patent US7125847B1, “Mechanically activated channel blocker” (priority 2000, dated 2006)
Entries after “also recorded” stand apart in the source; their conditions may differ. Where no end group is shown, it is not given here.

Key:
Format in all cases: cell-based
[1] = system: MSC currents in normal rat kidney cells; assay: Outside-out patch clamp of mechanosensitive channel currents in normal rat kidney cells; details: 5 μM
Description: NRK cell culture: Normal rat kidney cells (CCA identifier is 49F) at passages 20–25, were maintained in DMEM, 5% fetal bovine serum and 1%
Penicillin/Streptomycin. Cells were plated onto poly-L-lysine coated cover-slips, and used in experiments between 2 and 6 days after passage.
Electrophysiology: An Axopatch 200B (Axon Instruments, California) was used for patch clamping, while experimental protocols and data acquisition were controlled by Axon Instruments pClamp8 software via a Digidata 1322A acquisition system. Currents were sampled at 10 KHz and low-pass filtered at 2 KHz through the 4 pole Bessel filter on the Axopatch 200B. All potentials are defined with respect to the extracellular surface. Electrodes were pulled on a Model PC-84 pipette puller (Brown-Flaming Instruments, California), painted with Sylgard 184 (Dow Corning Corp. Midland Mich.) and fire polished. Electrodes were filled with KCl saline (KCl 140 mM, EGTA 5 mM, MgSO4 2 mM, Hepes 10 mM, pH 7.3) and had resistances ranging from 10–20 MΩ. Bath saline consisted of NaCl—140 mM, KCl—5 mM, CaCl2—2 mM, MgSO4—0.5 mM, glucose—6 mM and Hepes—10 mM, pH 7.3. Pressure and suction were applied to the pipette by a HSPC-1 pressure clamp (ALA Scientific Instruments, New York) controlled by the pClamp software. Perfusion of toxin samples was performed by a pressurized local perfusion system BPS-8 (ALA scientific instruments, NY) with 8 separate channels. Off-line data analysis was performed with Clampfit and Origin 6.1 software.

[2] = system: stretch-activated channels (SACs); assay: Outside-out patch clamp of stretch-activated channels in adult rat astrocytes
Description: This embodiment describes the effect of the peptide GsMTx-4 variant (SEQ ID NO:1) on SACs. To illustrate this, adult rat astrocytes which are known to have SACs, were used. Adult rat astrocytes were cultured according to standard methods. Briefly, activated adult astrocytes isolated from gelatin-sponge implants from adult Sprague-Dawley rat brains obtained according to the method of Langan et al. (1995, Glia, 14:174–184) were used at passage numbers 2–4. Astrocytes were maintained in DMEM, 10% fetal bovine serum and 1% Penicillin/Streptomycin and were used in experiments between 2 and 5 days after passage. Cells between passage 4 and 35 expressed SACs with the same properties Both stellate process bearing cells and flat polygonal (fibroblast-like) cells were used.
The cultured astrocytes were used for single channel and whole cell recorndings. For single channel patch clamp, patch voltage was controlled by an Axopatch 200B (Axon Instruments, Calif.) and currents were recorded directly onto computer disk via a Labmaster DMA Ver. B (Scientific Instruments, Calif.) board controlled by pClamp6-Clampex acquisition software (Axon Instruments, California). Currents were sampled at 10 KHz and low-pass filtered at 2 KHz through the 4 pole Bessel filter on the Axopatch 200B. Experimental voltage protocols were controlled by pClamp6-Clampex. All potentials are defined with respect to the extracellular surface.
Electrodes were pulled on a Model PC-84 pipette puller (Brown-Flaming Instruments, Calif.), painted with Sylgard 184 (Dow Corning Corp. Midland Mich.) and fire polished. Electrodes were filled with KCl saline (KCl 140 mM, EGTA 5 mM, MgSO4 2 mM, Hepes 10 mM, pH 7.3) and had resistances ranging from 3–8 MWBath saline consisted of NaCl 140 mM, KCl 5 mM, MgSO4 1 mM, CaCl2 1 mM, glucose 6 mM and Hepes 10 mM, pH 7.3.
Pressure and suction were applied to the pipette by a pressure clamp. Pressure values represent pressure in the pipette, i.e., the intracellular side of the membrane in outside-out patches. Suction applied to a cell-attached patch has the same sign as pressure applied to an outside-out patch. The rise time of pressure changes at the tip were determined by monitoring the rate of current change when pressure steps were applied to an electrode containing 150 mM KCl solution and placed in a water bath. The t10-90 was ˜5 ms as determined by exponential fits to the current decay. Perfusion of toxin samples was performed by a pressurized bath perfusion system BPS-8 (ALA scientific instruments, NY) with 8 separate channels.
Off-line data analysis was performed with pClamp6 analysis software and Origin 5.0. Maximal unitary channel currents were determined via Guassian fits to the peaks of all points amplitude histograms generated from records containing 1–3 channels. […] Some of these records were analyzed by determining all of the step-like changes in current during the pressure application and selecting the average maximal current level as the unitary current. The data analyzed by this method was in good agreement with the unitary current levels determined by analysis of all points amplitude histograms from single channel patches.
The outside out patches from adult astrocytes as described above were used for testing the HPLC fractions obtained in Example 1. The HPLC fractions were lyophilized, redissolved at a 1:1000 dilution and perfused onto outside out patches. […] The fraction containing the single peak in FIG. 1D was then tested for activity against SACs. […] The patch was held at −50 mV, and the pressure pulse is shown above the records.
The entire experiment is comprised of 60 pressure steps: steps 1–20 occur before GsMTx-4 application; steps 21–38 while GsMTx-4 is being perfused; steps 39–60 occur during washout. Each 500 ms pressure step was separated by 1.5 seconds at 0 pressure.
The association rate of the toxin was determined by applying GsMTx-4 to an outside-out patch while the channels were activated by stretch (FIG. 5). […]

[3] = system: whole-cell swelling-activated currents in adult rat astrocytes; assay: Whole-cell (Nystatin perforated patch) currents in adult rat astrocytes, isotonic and hypotonic swelling
Description: It is considered that part of the swelling activated currents are attributable to SACs. To illustrate this embodiment, adult rat astrocytes were cultured as described above. Whole cell current was measured by the Nystatin perforated patch. Bath saline was the same as in Example 2. Pipette saline consisted of: KCl 80 mM, K2SO4 30 mM, NaCl 10 mM, MgSO4 3 mM, CaCl20.13 mM, EGTA 0.23 mM and Hepes 10 mM, pH 7.3. Nystatin was dissolved in pipette saline to a final concentration of […]. After patch formation, access resistance was allowed to drop to ˜15 MW (uncompensated), after which the series resistance compensation was set at ˜65%, and prediction was set to ˜75%. Whole cell capacitance measurements ranged from ˜25–50 pF. Whole cell currents were monitored by either a voltage step protocol shown in FIG. 7, or by 600 ms voltage ramps. During hypotonic swelling the cell was perfused initially with isotonic saline (bath saline with 160 mM mannitol replacing 80 mM NaCl) before switching to hypotonic saline (isotonic saline minus 140 mM mannitol). The BPS-8 perfusion system was used to rapidly (<200 ms) change the bathing solution. Peak currents were measured at 3–5 ms into voltage steps.

Compound: cloned: GsMTx4 liberated by thrombin from a thioredoxin fusion protein, with three extra amino acids at the N-terminus (SGMGCLEFWWKCNPNDDKCCRPKLKCSKLFKLCNFSF; ends and bridges not checked; cysteine pairing not given here)
- block of mechanosensitive channels [1]: blocked; also recorded: active in blocking SACs
- block of mechanically sensitive current ([1]; outside-out patches held at −50 mV): greater than 75%

Compound: synthetic: chemically synthesized GsMTx4 with a C-terminal phenylalanine, folded with GSH/GSSG (GCLEFWWKCNPNDDKCCRPKLKCSKLFKLCNFSF-NH2; disulfide (positions not given here); not fully specified (bridges); also: three intramolecular disulfide bonds, pairing not given here)
- block of mechanosensitive channels [1]: active in blocking SACs
- block of mechanosensitive channels ([1]; listed as synthetic peptide): blocked

Compound: GCLEFWWKCNPNDDKCCRPKLKCSKLFKLCNFSSG (not fully specified (C-terminus); ends and bridges not checked; listed as Grammastola spatulata) [SEQ ID NO.1, 35 amino acids with C-term glycine amide]
- SAC blocking activity [2]: has SAC blocking activity

Compound: O=S(=O)(O)c1cc(N=C=S)ccc1C=Cc1ccc(N=C=S)cc1S(=O)(=O)O [DIDS, reference compound]
- shift in reversal potential of swelling-activated current ([3]; 50 μM DIDS, average n=6): −33 mV
- effect on swelling-activated current ([3]; 50 μM DIDS, especially at depolarized potentials): significant reduction in current

Compound: [Cl-].[Cs+] [CsCl, reference compound]
- effect on whole-cell current in isotonic saline ([3]; CsCl, hyperpolarized potentials): significant decrease in current
